The values that follow come from patent US6596712B2, “Treatment of carcinomas using squalamine in combination with other anti-cancer agents or modalities” (Genaera Corporation, priority 1996, dated 2003).

Assay [1] relates to 9L gliosarcoma tumors (9L glioma). Put plainly: 9L glioma flank study. Format: in vivo, Fisher 344 rats. The settings on record: Day 25 or 26 after implantation; treatment from Day 5 per Table 4. The method, then:
Four groups of rats (twenty total Fisher 344 rats, 200 g) were given s.q. transplants of 1 mm3 9L gliosarcoma tumors (9L glioma) on Day 0. The tumors were implanted in the rat flanks to avoid complications relating to adequate brain levels of squalamine. Randomization and treatment began on Day 5 according to the following scheme:
On Day 25 or 26 after tumor implantation, the tumor size was measured directly. The tumor size (i.e., its volume “V”) was estimated based on volumetric calculations determined from the measured length (“L”), width (“W”), and height (“H”) of the tumor (Vtumor spheroid˜0.5 ×L×W×H). The tumor volumes shown in Table 5 represent the mean tumor volumes for each treatment group for those animals that survived to the end of the experiment.

In a further assay the test system is H460. Kind of assay: H460 lung tumor xenograft with carboplatin. Type of assay: in vivo, nude BALBc mice. As to the method:
(§1) About 5×10^6 cells from each of two human lung tumor lines, H460 (a rapidly proliferating large cell carcinoma cell line, ATCC HTB-177) and Calu-6 (an anaplastic carcinoma, ATCC HTB-56), were inoculated subcutaneously in the right foreleg of nude BALBc mice. Once tumors were visible (3-5 days) with a mean volume of approximately 50-80 mm^3, mice were treated intraperitoneally with 60 mg/kg carboplatin (single dose) or 20 mg/kg/squalamine (once daily for 5 days) or a combination of carboplatin and squalamine. There were 8 mice per group. Tumor growth inhibition was scored by quantifying the size of tumors once control tumors reached a size of 1.0 gram and determining the ratio of mean treated tumor size to mean control tumor size (T/C). Tumor growth inhibition was then scored as 100% x [1-(T/C)]. A separate antitumor activity variable, tumor growth delay, was scored for the tumors by determining the length of time it required for the mean tumor size in a treatment group to reach a size of 500 mm^3 (B. A. Teicher et al., Anticancer Research 18, 2567-2574 (1998)). The tumor growth inhibition seen with carboplatin plus squalamine was greater than that seen with carboplatin or squalamine alone. The relative inactivity of squalamine as a single agent by this assay endpoint supports the idea that squalamine is synergistic with carboplatin in the inhibition of these two human lung tumor xenografts. Similarly, it was determined that squalamine enhanced the tumor growth delay caused by carboplatin by an enhancement factor of >2.3 (Table 7).

A further assay concerns Calu-6. Kind of assay: Calu-6 lung tumor xenograft with carboplatin. Format: in vivo, nude BALBc mice. As to the method: as §1
In assay [2] the test system is murine Lewis lung adenocarcinoma. Put plainly: Lung metastases of subcutaneous Lewis lung carcinoma. Type of assay: in vivo, C57BL/6 mice. Conditions: day 20; squalamine 20 mg/kg/day s.c.; cyclophosphamide 125 mg/kg i.p. days 7, 9, 11; cisplatin 10 mg/kg i.p. day 7. The method, then: The murine Lewis lung adenocarcinoma was implanted subcutaneously in the hind-leg of male C57BL/6 mice and allowed to grow for one week. Groups of mice were then left untreated or treated with either squalamine (20 mg/kg/day, s.c.), cyclophosphamide (125 mg/kg, i.p. on days 7, 9 and 11), cisplatin (10 mg/kg, i.p. on day 7), the combination of squalamine and cyclophosphamide, or the combination of squalamine and cisplatin. On day 20, the animals were sacrificed, and the mean number of lung metastases were determined for each group.

The next assay deals with parental 2008 cell line. Put plainly: Human ovarian tumor 2008 xenograft with cisplatin. Type of assay: in vivo, female Swiss nude mice. The settings on record: cisplatin single dose 4 mg/kg, squalamine 2 mg/kg, days 1-10. The method, then:
Human ovarian tumor cells were injected subcutaneously (5×10^7 cells per animal) in the mid-back region of female Swiss nude mice. The human ovarian tumors were either the parental 2008 cell line (cf. R. J. Pietras et al., Oncogene 9, 1829-1838 (1994)) or a transfected variant overexpressing the Her-2/neu receptor. The overexpression of the Her-2/neu receptor is considered to make the resulting xenograft tumors more angiogenic and less responsive to chemotherapy. After one week, animals were randomized to groups receiving no treatment (controls), a single dose of cisplatin (4 mg/kg), daily treatment with squalamine (2 mg/kg, days 1-10) or cisplatin plus squalamine. The growth of tumors was then scored on day 28 following initiation of chemotherapy. The results were very similar with the parental 2008 tumor and the transfected variant overexpressing the Her-2/neu receptor. […] In this xenograft model, the [day 28 mean treated tumor weight increase divided by the day 28 mean control tumor weight increase (T/C)] x 100% was subtracted from 100% to give the tumor growth inhibition (TGI) value for each group.
In general terms: In xenograft studies the graft and the host belong to different species.

Another assay concerns NHE1, NHE2, NHE3. The settings on record: FIG. 4; cited from earlier work.
Assay [3] relates to human MX-1 breast cancer line. Type of assay: in vivo. Conditions: single 200 mg/kg dose on day 14. The method, then:
These documents each are entirely incorporated herein by reference. Squalamine was examined as adjunctive therapy following a single 200 mg/kg dose of cyclophosphamide. The cyclophosphamide was injected on day 14 following implantation of the tumor, at a time when the tumors measured 65-125 μl. […] The animals were then randomized to three treatment arms (each n=27): vehicle dosing only (Intralipid); squalamine given 10 mg/kg/day in Intralipid; and squalamine given 20 mg/kg/day in Intralipid for five days a week. Animals whose tumors exceeded 2 grams at any time during the experiment were euthanized. The experiment was continued for 90 days after initiating squalamine treatment to ensure that only mice experiencing long-term cures were still alive.

For a further assay, the system named is LNCaP cells. Kind of assay: LNCaP cell growth in vitro ([3H]-thymidine incorporation). The settings on record: media containing serum. Format: cell-based, human. The method, then: The anti-proliferative effect of squalamine was evaluated in tissue culture by both crystal violet staining and [^3H]-thymidine incorporation, on the LNCaP/C4-2 human prostate cancer progression model. Developed by applicants' laboratory, this lineage-derived cell line recapitulates the progression of human neoplastic prostate disease from an androgen-dependent and minimally metastatic condition (LNCaP cells) to an androgen-independent (defined as being able to proliferate in castrate hosts) and highly aggressive state (C4-2 subline).
In vitro experiments were also conducted with the LNCAP cell line in which cell proliferation as judged by [3H]-thymidine uptake was determined. LNCaP cells were maintained as previously described (cf. J. T. Hsieh et al., Cancer Research 53, 2852-2857 (1993)). Cells were exposed to 20 ng/mL vascular endothelial growth factor (VEGF), 20 μg/mL squalamine or a combination of VEGF and squalamine. […] As a consequence, the mechanism underlying the effectiveness of squalamine treatment of the LNCaP tumor in vivo may under certain conditions also involve direct inhibition of tumor cell growth and/or induction of tumor cell death.
On the technique in general: Dividing cells build labelled thymidine or BrdU into new DNA.

The mark [4] stands for this setting: carboplatin 60 mg/kg i.p. single dose, squalamine 20 mg/kg once daily for 5 days.
Where [5] appears, read: time for mean tumor size to reach 500 mm^3.

On to `O=NN(CCCl)C(=O)NCCCl` [BCNU, 1,3-Bis(2-chloroethyl)-1-nitrosourea, reference compound], for which, in assay [1], the “% Reduction (based on control volume)” value is given as 86.1% and the “Mean Tumor volume” value was 2,547 mm^3.
In the case of `N.N.O=C([O-])C1(C(=O)[O-])CCC1.[Pt+2]` [Carboplatin, carboplatin], the “Tumor Growth Inhibition (T/C)” value in the assay on H460 (setting [4]) worked out at 50%; in the assay with Calu-6 (setting [4]), 23%. Moreover, the “Tumor Growth Delay” value with H460 (setting [5]) is on record as 2.9; with Calu-6 (setting [5]), 2.5.
Consider `N.N.[Cl][Pt][Cl]` [Cisplatin, cis-Diamminedichloroplatinum, reference compound], for which the “mean number of lung metastases” value in assay [2] is “reduced the number of metastases”. In the assay with parental 2008 cell line, the “Day 28 Mean Tumor Size” value is reported as 5108 mm^3. Besides, the “Tumor Growth Inhibition (TGI) Index” value with parental 2008 cell line (day 28) is 18%.
Take `N=C(N)NC(=O)c1nc(Cl)c(N)nc1N` [amiloride]: the NHE isoform selectivity entry in the assay with NHE1, NHE2, NHE3 was “specifically act against NHE1 over NHE2 or NHE3”.
Regarding `O=P1(N(CCCl)CCCl)NCCCO1` (centres unmarked) [cyclophosphamide, N,N-Bis-(2-chloroethyl)-N′-(3-hydroxypropyl)phosphordiamidic acid cyclic ester monohydrate, reference compound], the tumor regression entry in assay [3] is “partial regression in all animals and complete regression in a small fraction of the animals”. For the same molecule, in assay [2], the “mean number of lung metastases” value is listed as “reduced the number of metastases”.
Turning to VEGF, in the assay on LNCaP cells (20 ng/mL VEGF and/or 20 μg/mL squalamine, 24 hours), the “Percent of Control [3H]-Thymidine Uptake” value worked out at 84%. In the assay with LNCaP cells (20 ng/mL VEGF or 20 μg/mL squalamine), the “effect on cell growth alone” value was “minimal effects on cell growth”.
